Starred links: 1 amine or outer side, 2 acyl side, 3 side chain; linkers in the order of their positions; H or OH if unused. Positions of bridges follow the written chain, without caps; N, C: chain ends. Non-standard residues stand in square brackets, D forms with d. Residues, ends and D or L forms follow the SMILES beside them. ξ: configuration not given here. *: point of attachment. Trp(βS-Me) = C[C@@H](c1c[nH]c2ccccc12)[C@H](N)C(=O)O; NHCH2C6H4(p)CH2CH2NH = c1cc(CN[*:1])ccc1CCN[*:2]; X58 = O=C([C@@H]1[C@H](OCC=[*:3])CCN1[*:1])[*:2]; Ala(imidazol-2-yl) = N[C@@H](Cc1ncc[nH]1)C(=O)O; Arg(NO2) = N=C(NCCC[C@H](N)C(=O)O)N[N+](=O)[O-]; Phe(4-COOH) = N[C@@H](Cc1ccc(C(=O)O)cc1)C(=O)O; Trp(5-F) = N[C@@H](Cc1c[nH]c2ccc(F)cc12)C(=O)O; Trp(7-aza) = N[C@@H](Cc1c[nH]c2ncccc12)C(=O)O; Acetyl(2-(4-imidazolyl)) = O=C(Cc1c[nH]cn1)*; dPro(cis-4-NH2) = N[C@H]1CN[C@@H](C(=O)O)C1; X3 = O=C(CCSCc1cc(F)cc(CSCCN[*:1])c1)[*:2]; X57 = O=C([C@@H](CCCCC=[*:3])N[*:1])[*:2]; Pro(cis-4-F) = O=C(O)[C@@H]1C[C@H](F)CN1; X4 = O=C(CCSCc1cccc(CSCCN[*:1])c1)[*:2]; X40 = FC(F)(F)c1cc(C[*:1])cc(C[*:2])c1; mXylylene = c1cc(C[*:1])cc(C[*:2])c1; AEF = NCCOc1ccc(C[C@H](N)C(=O)O)cc1; cisHyp = O=C(O)[C@@H]1C[C@H](O)CN1; X7 = O=C(Cc1ccc(CN[*:1])cc1)[*:2]; Asu = N[C@@H](CCCCCC(=O)O)C(=O)O; ξAla(CF3) = NC(CC(F)(F)F)C(=O)O; Aad = N[C@@H](CCCC(=O)O)C(=O)O; αMeP = C[C@@]1(C(=O)O)CCCN1; Dap = NC[C@H](N)C(=O)O; AEEA = NCCOCCOCC(=O)O; Mpa = O=C(O)CCS
What follows are compounds tested against PCSK9 (Homo sapiens (Human), UniProt Q8NBP7) (assay: PCSK9 Alexa FRET Standard assay (displacement of AlexaFluor647 tagged cyclic peptide Reagent A)). Conditions: IC50.
Assay type: binding
Outline: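 TR-FRET displacement: 0.5 nM biotinylated PCSK9 with 1.25 nM Strep-Eu and 20 nM AlexaFluor-tagged cyclic peptide (final) in 50 mM HEPES pH 7.4, 0.15 M NaCl, 5 mM CaCl2, 0.01% BSA, 0.01% P20, ≥2 h at room temperature. IC50 from sigmoidal fit, converted to Ki via peptide KD; falling Eu counts flagged false positives.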

PCSK9, sequence (Q8NBP7 153-692): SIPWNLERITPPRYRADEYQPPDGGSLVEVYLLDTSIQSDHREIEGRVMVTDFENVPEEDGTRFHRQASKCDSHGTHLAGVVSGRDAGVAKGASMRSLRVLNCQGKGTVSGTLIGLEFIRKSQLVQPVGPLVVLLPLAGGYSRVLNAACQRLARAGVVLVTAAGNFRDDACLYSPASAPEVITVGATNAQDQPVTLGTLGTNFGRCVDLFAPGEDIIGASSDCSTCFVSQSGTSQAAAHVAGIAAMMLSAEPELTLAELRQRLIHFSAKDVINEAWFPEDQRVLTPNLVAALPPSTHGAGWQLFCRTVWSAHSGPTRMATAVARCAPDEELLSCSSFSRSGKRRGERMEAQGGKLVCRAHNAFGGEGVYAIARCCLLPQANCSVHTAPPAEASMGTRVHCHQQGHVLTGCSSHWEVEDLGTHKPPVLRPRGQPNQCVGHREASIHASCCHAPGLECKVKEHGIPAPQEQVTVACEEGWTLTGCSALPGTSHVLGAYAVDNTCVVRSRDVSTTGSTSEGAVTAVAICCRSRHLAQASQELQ

SMILES	IC50
COc1ccc(C[C@@H]2NC(=O)[C@H](Cc3ncc[nH]3)NC(=O)[C@H](CC(=O)O)NC(=O)[C@H](Cc3c[nH]c4ccc(F)cc34)NC(=O)[C@H](Cc3c[nH]c4ccc(F)cc34)NC(=O)[C@@H](C)NC(=O)[C@H](CCC/N=C(\N)N[N+](=O)[O-])NC(=O)CCSCc3cccc(c3)CSCCNC(=O)[C@]3(C)CCCN3C2=O)cc1 [Compound 445] (cyclo([Arg(NO2)][dA][Trp(5-F)][Trp(5-F)]D[Ala(imidazol-2-yl)]Y(Me)[αMeP][X4]))	21 to 50 µM

Same assay, conditions: PCSK9 Alexa FRET Standard assay, 0.5 nM PCSK9, 20 nM AF cyclic peptide Reagent A

SMILES	IC50
COc1ccc(C[C@@H]2NC(=O)[C@H]([C@@H](C)O)NC(=O)[C@@H]3C[C@H](F)CN3C(=O)[C@H](Cc3c[nH]c4ccc(F)cc34)NC(=O)[C@H](Cc3c[nH]c4ccc(F)cc34)NC(=O)[C@@H](C)NC(=O)[C@H](CCCCN)NC(=O)[C@@H](NC(=O)Cc3cnc[nH]3)CC(=O)NCCOc3ccc(cc3)C[C@@H](C(N)=O)NC(=O)[C@]3(C)CCCN3C2=O)cc1 [Compound 106] ({Acetyl(2-(4-imidazolyl))}-DK[dA][Trp(5-F)][Trp(5-F)][Pro(cis-4-F)]TY(Me)[αMeP][AEF]-NH2; lactam 1-10)	1 to 12.1 µM

Same assay, conditions: PCSK9 Alexa FRET Standard assay, 0.5 nM PCSK9, 20 nM AF cyclic peptide Reagent A; read-out: IC50

IC50	SMILES
1 to 12.1 µM	C[C@@H](c1c[nH]c2ccccc12)[C@@H]1NC(=O)CNC(=O)[C@H](CCCCN)NC(=O)CCSCc2cccc(c2)CSC[C@@H](C(N)=O)NC(=O)[C@]2(C)CCCN2C(=O)[C@H](Cc2ccc(O)cc2)NC(=O)[C@H](Cc2cnc[nH]2)NC(=O)[C@H](CC(=O)O)NC(=O)[C@H](Cc2c[nH]c3ccc(F)cc23)NC1=O [Compound 430] ([Mpa]KG[Trp(βS-Me)][Trp(5-F)]DHY[αMeP]C-NH2; linker 1-10 via mXylylene)
0.00011 to 0.1 µM	COc1ccc(C[C@@H]2NC(=O)[C@H](Cc3ncc[nH]3)NC(=O)[C@H](CC(=O)O)NC(=O)[C@H](Cc3c[nH]c4ccc(F)cc34)NC(=O)[C@H](Cc3c[nH]c4ccc(F)cc34)NC(=O)[C@@H](C)NC(=O)[C@H](CNC(=O)COCCOCCN)NC(=O)CCSCc3cccc(c3)CSCCNC(=O)[C@]3(C)CCCN3C2=O)cc1 [Compound 448] (cyclo(D[Ala(imidazol-2-yl)]Y(Me)[αMeP][X4][Dap](AEEA)[dA][Trp(5-F)][Trp(5-F)]))
21 to 50 µM	NCCCC[C@@H]1NC(=O)CCSCc2cccc(c2)CSC[C@@H](C(N)=O)NC(=O)[C@@H]2CCCN2C(=O)[C@H](Cc2c[nH]c3ncccc23)NC(=O)[C@H](Cc2c[nH]cn2)NC(=O)[C@H](CC(=O)O)NC(=O)[C@H](Cc2c[nH]c3ccc(F)cc23)NC(=O)[C@H](Cc2c[nH]c3ccc(F)cc23)NC(=O)CNC1=O [Compound 235] ([Mpa]KG[Trp(5-F)][Trp(5-F)]DH[Trp(7-aza)]PC-NH2; linker 1-10 via mXylylene)
21 to 50 µM	COc1ccc(C[C@@H]2NC(=O)[C@H](Cc3ncc[nH]3)NC(=O)[C@H](CC(=O)O)NC(=O)[C@H](Cc3c[nH]c4ccc(F)cc34)NC(=O)[C@H](Cc3c[nH]c4ccc(F)cc34)NC(=O)[C@@H](C)NC(=O)C(CC(F)(F)F)NC(=O)CCSCc3cccc(c3)CSCCNC(=O)[C@]3(C)CCCN3C2=O)cc1 (stereo partly drawn) [Compound 444] (cyclo(D[Ala(imidazol-2-yl)]Y(Me)[αMeP][X4][ξAla(CF3)][dA][Trp(5-F)][Trp(5-F)]))
0.00011 to 0.1 µM	CC(C)C[C@H]1C(=O)N[C@@H](Cc2ccc(O)cc2)C(=O)N2CCC[C@@]2(C)C(=O)N[C@H](C(N)=O)CSCc2cccc(c2)CSCCC(=O)N[C@@H](CCCCN)C(=O)NCC(=O)N[C@@H](Cc2c[nH]c3ccc(F)cc23)C(=O)N[C@@H](Cc2c[nH]c3ccc(F)cc23)C(=O)N[C@H]2CCN1C2=O [Compound 472]
21 to 50 µM	COc1ccc(C[C@@H]2NC(=O)[C@H]([C@@H](C)O)NC(=O)[C@@H]3CCCN3C(=O)[C@H](Cc3c[nH]c4ccc(F)cc34)NC(=O)[C@H](Cc3c[nH]c4ccc(F)cc34)NC(=O)[C@@H](C)NC(=O)[C@H](CCCCN)NC(=O)CCSCc3cc(cc(C(F)(F)F)c3)CSC[C@@H](C(N)=O)NC(=O)[C@]3(C)CCCN3C2=O)cc1 [Compound 073] ([Mpa]K[dA][Trp(5-F)][Trp(5-F)]PTY(Me)[αMeP]C-NH2; linker 1-10 via X40)
0.00011 to 0.1 µM	CC(=O)N[C@@H]1CCCC/C=C\CO[C@@H]2CCN(C(=O)[C@H](Cc3ccc(O)cc3)NC(=O)[C@H](Cc3cnc[nH]3)NC(=O)[C@H](CC(=O)O)NC(=O)[C@H](Cc3c[nH]c4ccc(F)cc34)NC(=O)[C@H](Cc3c[nH]c4ccc(F)cc34)NC(=O)CNC1=O)[C@@H]2C(N)=O [Compound 471] (Ac-[X57]G[Trp(5-F)][Trp(5-F)]DHY[X58]-NH2; staple (Z) 1-8)

Further lines, the compound ahead of its results:

SMILES	IC50
CC[C@H](C)[C@@H]1NC(=O)[C@@H]2CCCN2C(=O)[C@H](Cc2c[nH]c3ccc(F)cc23)NC(=O)[C@H](Cc2c[nH]c3ccc(F)cc23)NC(=O)CNC(=O)[C@H](CCCCN)NC(=O)CCSCc2cccc(c2)CSC[C@@H](C(N)=O)NC(=O)[C@]2(C)CCCN2C(=O)[C@H](Cc2ccc(O)cc2)NC1=O [Compound 006] ([Mpa]KG[Trp(5-F)][Trp(5-F)]PIY[αMeP]C-NH2; linker 1-10 via mXylylene)	21 to 50 µM
COc1ccc(C[C@@H]2NC(=O)[C@@H]([C@H](C)O)NC(=O)[C@@H]3C[C@H](F)CN3C(=O)[C@H](Cc3c[nH]c4ccc(F)cc34)NC(=O)[C@H](Cc3c[nH]c4ccc(F)cc34)NC(=O)[C@@H](C)NC(=O)Cc3ccc(cc3)CNC(=O)c3ccc(cc3)C[C@@H](C(N)=O)NC(=O)[C@]3(C)CCCN3C2=O)cc1 [Compound 080] ([X7][dA][Trp(5-F)][Trp(5-F)][Pro(cis-4-F)][dT]Y(Me)[αMeP][Phe(4-COOH)]-NH2; lactam N-9)	1 to 12.1 µM
COc1ccc(C[C@@H]2NC(=O)[C@H](Cc3cnc[nH]3)NC(=O)[C@H](CC(=O)O)NC(=O)[C@H](Cc3c[nH]c4ccc(F)cc34)NC(=O)[C@H](Cc3c[nH]c4ccc(F)cc34)NC(=O)[C@@H](C)NC(=O)[C@H](CCCCCC(=O)O)NC(=O)CCSCc3cccc(c3)CSCCNC(=O)[C@]3(C)CCCN3C2=O)cc1 [Compound 426] (cyclo([Asu][dA][Trp(5-F)][Trp(5-F)]DHY(Me)[αMeP][X4]))	1 to 12.1 µM
COc1ccc(C[C@@H]2NC(=O)[C@H]([C@@H](C)O)NC(=O)[C@@H]3C[C@H](F)CN3C(=O)[C@H](Cc3c[nH]c4ccc(F)cc34)NC(=O)[C@H](Cc3c[nH]c4ccc(F)cc34)NC(=O)[C@@H](C)NC(=O)[C@H](CCCCN)NC(=O)[C@@H](NC(C)=O)CCCC(=O)NCc3ccc(cc3)CCNC(=O)[C@]3(C)CCCN3C2=O)cc1 [Compound 096] (Ac-[Aad]K[dA][Trp(5-F)][Trp(5-F)][Pro(cis-4-F)]TY(Me)[αMeP]; linker 1-C via NHCH2C6H4(p)CH2CH2NH)	0.1 to 1 µM
COc1ccc(C[C@@H]2NC(=O)[C@@H]([C@H](C)O)NC(=O)[C@H]3C[C@@H](N)CN3C(=O)[C@H](Cc3c[nH]c4ccc(F)cc34)NC(=O)[C@H](Cc3c[nH]c4ccc(F)cc34)NC(=O)[C@@H](C)NC(=O)[C@H](CCCCN)NC(=O)CCSCc3cc(F)cc(c3)CSCCNC(=O)[C@]3(C)CCCN3C2=O)cc1 [Compound 082] (cyclo(K[dA][Trp(5-F)][Trp(5-F)][dPro(cis-4-NH2)][dT]Y(Me)[αMeP][X3]))	0.1 to 1 µM
COc1ccc(C[C@@H]2NC(=O)[C@@H]([C@H](C)O)NC(=O)[C@@H]3C[C@H](O)CN3C(=O)[C@H](Cc3c[nH]c4ccc(F)cc34)NC(=O)[C@H](Cc3c[nH]c4ccc(F)cc34)NC(=O)[C@@H](C)NC(=O)[C@H](CCCCN)NC(=O)CCSCc3cc(F)cc(c3)CSCCNC(=O)[C@]3(C)CCCN3C2=O)cc1 [Compound 086] (cyclo(K[dA][Trp(5-F)][Trp(5-F)][cisHyp][dT]Y(Me)[αMeP][X3]))	21 to 50 µM
